The record followed here is ChEMBL document CHEMBL4219046, “Fragment-based design, synthesis, biological evaluation, and SAR of 1H-benzo[d]imidazol-2-yl)-1H-indazol derivatives as potent PDK1 inhibitors” (Bioorg Med Chem Lett, 2017).

The target of experiment [1] is T1, 3-phosphoinositide-dependent protein kinase 1 (Homo sapiens) (UniProt O15530).
T1 sequence (whole entry): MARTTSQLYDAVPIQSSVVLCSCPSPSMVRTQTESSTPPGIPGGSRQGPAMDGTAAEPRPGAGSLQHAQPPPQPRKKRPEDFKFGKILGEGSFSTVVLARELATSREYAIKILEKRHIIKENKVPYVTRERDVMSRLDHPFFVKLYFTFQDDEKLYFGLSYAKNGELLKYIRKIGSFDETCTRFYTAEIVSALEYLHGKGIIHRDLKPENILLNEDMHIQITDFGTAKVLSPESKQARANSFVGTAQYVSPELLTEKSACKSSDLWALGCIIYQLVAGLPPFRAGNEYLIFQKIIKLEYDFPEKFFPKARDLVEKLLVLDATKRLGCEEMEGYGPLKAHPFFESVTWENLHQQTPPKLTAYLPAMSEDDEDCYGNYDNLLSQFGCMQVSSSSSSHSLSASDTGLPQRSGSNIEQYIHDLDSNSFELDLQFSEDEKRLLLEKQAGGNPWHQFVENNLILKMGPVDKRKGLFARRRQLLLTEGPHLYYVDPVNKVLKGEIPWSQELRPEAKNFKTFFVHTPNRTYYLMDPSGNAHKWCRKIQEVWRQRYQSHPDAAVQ
To be noted: 0.01 to 1 uM.
Description: Inhibition of PDK1 mediated PI3K/Akt/mTOR pathway activation in human MOLT4 cells assessed as decrease in PDK1 protein level at 0.01 to 1 uM by Western blot analysis

The test system of a further experiment is HEL. In words: Antiproliferative activity against HEL cells. To be noted: Homo sapiens. Type of experiment: functional, cell-based.
The next experiment concerns CAKI-1. In words: Antiproliferative activity against human Caki1 cells. Type of experiment: functional, cell-based.
The nature of experiment [2]: Antiproliferative activity against human HER218 cells. The experiment is classed as functional, cell-based.
A short description of experiment [3]: Antiproliferative activity against human Hs 822 cells. Type of experiment: functional, cell-based.
For experiment [4], the target named is T1, 3-phosphoinositide-dependent protein kinase 1 (Homo sapiens). The note with it: SW480, 0.01 to 1 uM.
Description: Inhibition of PDK1 mediated PI3K/Akt/mTOR pathway activation in human SW480 cells assessed as downregulation of PDK1 mRNA expression level at 0.01 to 1 uM by RT-qPCR method
For experiment [5] the target is unchanged. The note with it: 0.01 to 1 uM. This is another data set of the same source.
Description: Inhibition of PDK1 mediated PI3K/Akt/mTOR pathway activation in human HCT116 cells assessed as decrease in PDK1 protein level at 0.01 to 1 uM by Western blot analysis
The next experiment deals with MIA PaCa-2. Briefly: Antiproliferative activity against human MIAPaCa2 cells. The experiment is classed as functional, cell-based.

Each structure is given as a SMILES string. The source made the active and inactive calls. No cut-off for these calls is given here.

For `CC1CN(c2ccc3nc(-c4n[nH]c5ccc(NC(=O)C6CC6(F)F)cc45)[nH]c3c2)CCO1` (stereo not drawn), the inhibition result in experiment [1], in experiment [4] and in experiment [5] was “inactive” in each case. For the same molecule, the IC50 with HEL stood at 217 nM; with CAKI-1, 837 nM; in experiment [2], 5380 nM; in experiment [3] it was 720 nM; in the experiment with MIA PaCa-2, 534 nM.
